For experiment [1], the target named is T1, native (untagged) murine PKCδ (Mus musculus, UniProt P28867).
T1 construct: For coexpression of full-length unmodified PKC proteins with mVenus as an independent marker; expressed in transfected cells; host or cells: HEK293 (transient, pIRES-mVenus)
Description: FPCBA competition with probe 1, native PKCδ in HEK293 cells. It is filed as binding. The following applies: read-out: Cellular Ki for native PKCδ (95% confidence interval); probe 1 400 nM, BIM1 2 μM, 2 h at 37° C.

The target in a further experiment is PKCα (Homo sapiens, UniProt P17252). The following applies: radiolabeled PDBu at 4° C.; read-out: Biochemical Ki, PKCα; cited from earlier work.
The target of the next experiment is PKCθ (Homo sapiens, UniProt Q04759). As to conditions: radiolabeled PDBu at 4° C.; read-out: Biochemical Ki, PKCθ; cited from earlier work.
PKCθ, sequence (Q04759 whole entry): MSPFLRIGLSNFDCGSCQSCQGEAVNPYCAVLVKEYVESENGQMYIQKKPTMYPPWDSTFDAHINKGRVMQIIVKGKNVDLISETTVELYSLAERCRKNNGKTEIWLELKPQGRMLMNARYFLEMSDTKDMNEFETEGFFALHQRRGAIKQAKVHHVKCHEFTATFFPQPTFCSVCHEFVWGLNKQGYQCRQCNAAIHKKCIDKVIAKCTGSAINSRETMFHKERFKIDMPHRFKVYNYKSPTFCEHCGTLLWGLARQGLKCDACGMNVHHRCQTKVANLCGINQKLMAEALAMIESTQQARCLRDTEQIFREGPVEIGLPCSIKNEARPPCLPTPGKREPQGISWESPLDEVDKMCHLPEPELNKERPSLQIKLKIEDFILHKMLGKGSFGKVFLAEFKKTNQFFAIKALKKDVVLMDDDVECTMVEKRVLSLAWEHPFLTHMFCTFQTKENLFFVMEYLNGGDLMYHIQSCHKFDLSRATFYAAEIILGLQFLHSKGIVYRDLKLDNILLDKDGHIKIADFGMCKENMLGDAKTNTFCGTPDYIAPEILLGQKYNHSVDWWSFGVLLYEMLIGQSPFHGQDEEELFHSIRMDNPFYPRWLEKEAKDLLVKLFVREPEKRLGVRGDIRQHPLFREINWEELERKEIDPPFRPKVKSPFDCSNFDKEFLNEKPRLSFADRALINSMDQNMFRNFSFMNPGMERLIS
For experiment [2], the target named is native (untagged) murine PKCθ (Mus musculus, UniProt Q02111). In words: FPCBA competition with probe 1, native PKCθ in HEK293 cells. It is filed as binding. The arrangement: expressed in transfected cells; host or cells: HEK293 (ATCC CRL-1573), transient transfection with pIRES-mVenus carrying the PKC gene. The following applies: read-out: Cellular Ki for native PKCθ (95% confidence interval); probe 1 400 nM, BIM1 2 μM, 2 h at 37° C.
native (untagged) murine PKCθ, sequence (Q02111 whole entry): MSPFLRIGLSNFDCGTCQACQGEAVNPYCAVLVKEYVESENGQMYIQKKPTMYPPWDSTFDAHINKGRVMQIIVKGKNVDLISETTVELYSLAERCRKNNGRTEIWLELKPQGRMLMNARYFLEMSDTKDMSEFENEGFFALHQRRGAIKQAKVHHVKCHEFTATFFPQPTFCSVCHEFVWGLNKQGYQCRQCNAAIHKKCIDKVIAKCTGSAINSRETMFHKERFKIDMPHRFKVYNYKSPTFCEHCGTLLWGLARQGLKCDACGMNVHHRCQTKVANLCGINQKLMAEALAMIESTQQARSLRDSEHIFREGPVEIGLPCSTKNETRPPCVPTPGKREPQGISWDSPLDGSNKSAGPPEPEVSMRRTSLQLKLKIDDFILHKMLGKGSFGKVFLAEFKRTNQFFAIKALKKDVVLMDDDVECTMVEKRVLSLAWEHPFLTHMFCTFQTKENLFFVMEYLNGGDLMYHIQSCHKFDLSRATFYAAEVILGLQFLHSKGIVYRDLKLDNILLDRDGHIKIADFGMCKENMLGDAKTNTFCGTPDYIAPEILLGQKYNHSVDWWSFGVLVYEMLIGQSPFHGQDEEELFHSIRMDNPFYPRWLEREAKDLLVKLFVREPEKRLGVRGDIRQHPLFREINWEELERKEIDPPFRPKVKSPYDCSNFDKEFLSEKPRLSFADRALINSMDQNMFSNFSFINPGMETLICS

The next experiment deals with PKCγ (Homo sapiens, UniProt P05129). As to conditions: radiolabeled PDBu at 4° C.; read-out: Biochemical Ki, PKCγ; cited from earlier work.
In the next experiment the target is murine PKCη-mVenus (Mus musculus, UniProt P23298). In words: FPCBA saturation binding of probe 1, HEK293 cells expressing PKCη-mVenus (Example 3).
Experiment [3] has as its target T2, native (untagged) murine PKCβI (Mus musculus, UniProt P68404).
T2 construct: For coexpression of full-length unmodified PKC proteins with mVenus as an independent marker; expressed in transfected cells; host or cells: HEK293 (transient, pIRES-mVenus)
In words: FPCBA saturation binding of probe 1, native PKCβI (IRES-mVenus) in HEK293 cells.
Description: To measure the binding of 1 and 2 to PKCβI in cells, we used flow cytometry to analyze the blue fluorescence of transfected and non-transfected cells as a function of probe concentration at equilibrium (FIGS. 37A-37F). In these assays, we directly compared the PKCβI-mVenus fusion protein with native PKCβI expressed separately from mVenus. […] This low background signal facilitated saturation binding assays, where non-specific binding of probes to non-transfected cells was subtracted from total binding to highly transfected cells (P2 gate) to measure specific binding. […] We further compared cells treated with and without the orthosteric PKC catalytic inhibitor BIM1 to block the kinase activity of PKC and isolate the analysis of interactions of 1 and 2 with the C1 regulatory domains of PKCbI.

Experiment [4] deals with T3, native (untagged) murine PKCε (Mus musculus, UniProt P16054).
T3 sequence (P16054 1-737): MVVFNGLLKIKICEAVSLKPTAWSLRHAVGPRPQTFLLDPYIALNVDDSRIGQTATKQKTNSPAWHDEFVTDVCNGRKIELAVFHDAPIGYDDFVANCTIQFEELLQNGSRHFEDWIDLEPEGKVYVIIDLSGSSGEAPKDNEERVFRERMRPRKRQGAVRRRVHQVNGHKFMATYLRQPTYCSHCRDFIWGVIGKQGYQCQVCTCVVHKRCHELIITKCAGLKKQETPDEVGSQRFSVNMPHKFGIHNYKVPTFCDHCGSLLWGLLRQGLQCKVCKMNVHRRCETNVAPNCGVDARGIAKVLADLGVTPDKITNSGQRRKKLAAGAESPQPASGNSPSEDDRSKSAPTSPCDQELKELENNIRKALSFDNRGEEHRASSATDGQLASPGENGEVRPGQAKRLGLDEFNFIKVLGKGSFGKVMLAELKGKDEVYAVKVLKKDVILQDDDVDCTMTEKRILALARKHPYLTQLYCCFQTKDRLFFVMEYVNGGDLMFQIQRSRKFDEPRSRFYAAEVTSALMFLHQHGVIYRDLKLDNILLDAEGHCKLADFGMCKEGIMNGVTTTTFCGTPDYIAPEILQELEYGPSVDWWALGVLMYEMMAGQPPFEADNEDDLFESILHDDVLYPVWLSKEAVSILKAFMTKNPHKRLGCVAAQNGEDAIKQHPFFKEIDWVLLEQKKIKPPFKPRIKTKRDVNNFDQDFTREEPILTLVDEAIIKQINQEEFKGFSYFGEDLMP
In words: FPCBA saturation binding of probe 1, native PKCε (IRES-mVenus) in HEK293 cells.

In experiment [5] the target is native (untagged) murine PKCη (Mus musculus, UniProt P23298). Description: FPCBA saturation binding of probe 1, native PKCη (IRES-mVenus) in HEK293 cells.
In another experiment the target is T4, mouse PKCβI-mVenus (Mus musculus, UniProt P68404).
T4 construct: eight plasmids encoding full length mouse PKC isozymes fused to; expressed in transfected cells; host or cells: HEK293
T4 sequence (P68404 whole entry, the tested form may be a part): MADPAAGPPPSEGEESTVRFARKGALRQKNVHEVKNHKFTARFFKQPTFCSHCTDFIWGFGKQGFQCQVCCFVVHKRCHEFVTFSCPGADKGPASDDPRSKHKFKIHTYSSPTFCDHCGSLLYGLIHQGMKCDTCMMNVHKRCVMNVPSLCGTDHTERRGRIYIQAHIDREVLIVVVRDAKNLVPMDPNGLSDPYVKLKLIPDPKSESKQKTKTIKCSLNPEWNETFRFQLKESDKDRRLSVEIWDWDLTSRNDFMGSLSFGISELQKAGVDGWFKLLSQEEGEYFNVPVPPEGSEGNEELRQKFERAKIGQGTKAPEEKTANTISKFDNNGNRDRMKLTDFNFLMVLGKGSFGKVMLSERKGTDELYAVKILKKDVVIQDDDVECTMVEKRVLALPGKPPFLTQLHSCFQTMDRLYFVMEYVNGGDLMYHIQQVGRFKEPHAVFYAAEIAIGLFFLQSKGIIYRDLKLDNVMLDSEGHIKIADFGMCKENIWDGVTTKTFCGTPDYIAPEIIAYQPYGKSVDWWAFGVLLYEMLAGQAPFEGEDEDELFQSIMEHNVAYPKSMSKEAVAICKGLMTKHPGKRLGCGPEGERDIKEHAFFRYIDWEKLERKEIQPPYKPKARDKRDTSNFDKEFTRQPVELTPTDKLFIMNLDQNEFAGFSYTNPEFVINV
In words: Apparent cellular Kd by flow cytometry, HEK293 cells overexpressing PKCβI-mVenus (Example 2). It is filed as binding. The procedure:
The apparent Kd values of these fluorescent probes were measured using different PKC isozymes (e.g., PKCβI, FIGS. 20A-20D). HEK293 cells were transfected to overexpress PKCβ-mVenus and treated with probes in the presence of verapamil (100 μM) as an inhibitor of efflux.
(In general: In flow cytometry, cells or beads pass a laser one at a time.)

In another experiment the target is murine PKCα-mVenus (Mus musculus, UniProt P20444). In words: FPCBA saturation binding of probe 1, HEK293 cells expressing PKCα-mVenus (Example 3).
The target of a further experiment is T5, PKCβI-mVenus (Mus musculus, UniProt P68404).
T5 construct: we generated expression vectors for eight full-length mouse isozymes; expressed in transfected cells; host or cells: HEK293 (ATCC CRL-1573), transient transfection with CMV-PKC betaI-mVenus-N1
T5 sequence (P68404 whole entry): as the sequence (P68404 whole entry, the tested form may be a part) above
Description: Confocal microscopy of translocation of PKCβI-mVenus in HEK293 cells. It is filed as cell-based. As to conditions: 2 μM, 2 h. As to the method:
FIGS. 36A-36D provide confocal and DIC micrographs of living HEK293 cells transiently transfected to express PKCβI-mVenus. […] Scale bars=10 microns.
This IRES vector was derived from a previously reported^52 variant encoding the somewhat less fluorescent protein Venus.
Living cells cultured on an 8-well chamber glass slide (Ibidi μ-Slide, 300 μL, 100,000 cells/well) were imaged with an inverted Leica TCS SP8 confocal laser-scanning microscope (63× oil-immersion objective). Fluorescent probes were excited at 405 nm and mVenus was excited at 488 nm. Emitted photons were collected from 425-500 nm and 500-650 nm. For imaging, transiently transfected HEK293 cells in complete medium (10% FBS) were plated on the Ibidi μ-Slide for 16 h to promote adherence. Concentrated stock solutions of fluorescent probes in DMSO were serially diluted 500-fold in serum-free DMEM medium to afford 2× stock solutions (0.2% DMSO). Half of the cell culture medium (150 μL) was carefully removed by pipet and gently replaced with the 2× stock solution of the probe in serum-free medium (final [FBS]˜5%). Cells were treated with probes (2 μM) at 37° C. for 2 h before imaging by microscopy. Laser power and PMT gain settings were identical for all images and controls within a given experiment for accurate comparisons of cellular fluorescence.

T2 sequence (P68404 2-673 isoform P68404-2): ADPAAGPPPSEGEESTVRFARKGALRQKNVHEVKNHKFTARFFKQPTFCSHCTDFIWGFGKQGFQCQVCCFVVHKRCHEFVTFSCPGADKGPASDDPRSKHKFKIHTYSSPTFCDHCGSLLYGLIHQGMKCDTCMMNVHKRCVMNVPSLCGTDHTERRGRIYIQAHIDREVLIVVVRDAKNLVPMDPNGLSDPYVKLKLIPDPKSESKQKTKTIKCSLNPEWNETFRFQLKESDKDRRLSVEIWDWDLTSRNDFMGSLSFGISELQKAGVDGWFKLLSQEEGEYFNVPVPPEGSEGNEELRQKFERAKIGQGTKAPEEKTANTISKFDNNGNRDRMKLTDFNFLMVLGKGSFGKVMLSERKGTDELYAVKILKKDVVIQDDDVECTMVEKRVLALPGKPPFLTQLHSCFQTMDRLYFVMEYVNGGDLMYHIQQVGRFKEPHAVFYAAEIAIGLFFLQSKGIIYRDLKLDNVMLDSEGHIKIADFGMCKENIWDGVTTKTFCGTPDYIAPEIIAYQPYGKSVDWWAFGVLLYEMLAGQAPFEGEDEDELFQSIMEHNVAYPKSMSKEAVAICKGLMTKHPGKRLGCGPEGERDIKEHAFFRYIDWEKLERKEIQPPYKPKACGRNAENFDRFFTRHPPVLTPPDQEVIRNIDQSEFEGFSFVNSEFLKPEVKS

One may read the Ki as a measure of affinity in units of concentration, obtained from inhibition or displacement. On to `CCC/C=C/C=C/C(=O)O[C@H]1/C(=C/C(=O)OC)C[C@H]2C[C@H]([C@@H](C)O)OC(=O)C[C@H](O)C[C@@H]3C[C@H](OC(C)=O)C(C)(C)[C@](O)(C[C@@H]4C/C(=C/C(=O)OC)C[C@H](/C=C/C(C)(C)[C@]1(O)O2)O4)O3` [bryostatin 1], for which the inhibition constant (Ki) in experiment [1] was 20 nM; on PKCα it was 0.81 nM; on PKCθ, 1.5 nM; in experiment [2] it was 8 nM; on PKCγ, 2.2 nM.
On to `CCCCCCN(CCCCCCCCCCCCNC(=O)c1cc2cc(F)c(O)c(F)c2oc1=O)C(=O)O[C@@]12[C@H](O)[C@@H](C)[C@@]3(O)[C@@H](C=C(CO)C[C@]4(O)C(=O)C(C)=C[C@@H]34)[C@@H]1C2(C)C` [probe 1, (1aR,1bS,4aR,7aS,7bS,8R,9R,9aS)-4a,7b,9-trihydroxy-3-(hydroxymethyl)-1,1,6,8-tetramethyl-5-oxo-1,1a,1b,4,4a,5,7a,7b,8,9-decahydro-9aH-cyclopropa[3,4]benzo[1,2-e]azulen-9a-yl (12-(6,8-difluoro-7-hydroxy-2-oxo-2H-chromene-3-carboxamido)dodecyl)(hexyl)carbamate], for which the Kd on murine PKCη-mVenus worked out at 250 ± 36 nM; in [3] (IRES-mVenus, BIM1 2 μM, 2 h at 37° C., 4% FBS, read-out: Cellular Kd for probe, native PKCβI) it was 97 nM; in experiment [4], 568 ± 141 nM; in experiment [5], 177 nM; on mouse PKCβI-mVenus it was 190 nM; on murine PKCα-mVenus, 314 ± 37 nM. The “affinity of native untagged PKCβI relative to PKCβI-mVenus fusion” value in experiment [3] is roughly 2 fold. Besides, at PKCβI-mVenus, the “translocation of PKCβI-mVenus” value was “translocated to cellular membranes”.

(Values after US20230146870A1, “METHOD TO QUANTIFY AFFINITY AND SELECTIVITY OF SMALL MOLECULES FOR PROTEINS IN LIVING CELLS” (Ohio State Innovation Foundation, priority 2021, published 2023).)
